# Source: PubChem BioAssay (NCI)
#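 Results reflect a 48-hour exposure of cells in 96-well plates to compound at five concentrations. GI50 is the concentration that inhibits growth by half. TGI marks complete inhibition of growth.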
# Tested on: EKVX NSCLC
# Test: NCI anticancer screen, dose series, 48 h
Compound,TGI [µM],GI50 [µM]
O=C1[C@@H]2C(c3ccccc3F)=NO[C@@H]2C(=O)N1c1ccc(Cc2ccc(N3C(=O)[C@H]4C(c5ccccc5F)=NO[C@H]4C3=O)cc2)cc1,> 100,–
C=CCc1ccc(Oc2cc(CC=C)c3c(c2O)O[C@@H](CO)[C@H]3c2ccc(O)c(-c3cc(CC=C)ccc3O)c2)cc1,> 100,–
Cn1c2ccccc2c(=O)c2ccc(Cl)cc21,> 10,–
CC(CO)(CO)NCCCCn1ccc2c1C(=O)c1c(c(O)c3ccccc3c1O)C2=O,44.5,17.8
O=C(NCO)NCOCn1c(=O)n(CO)c(=O)n(CO)c1=O,> 100,–
Clc1ccc2c(c1)-c1c3c(nn1-c1ccccc1)-c1ccccc1SC3O2 (stereo unspecified),> 100,–
CCSc1nc(SCC)c2cn[nH]c2n1,> 100,18.9
COc1ccc(CCN2COc3c([C@@H](C)CCC=C(C)C)ccc(C)c3C2)cc1OC,25.4,5.14
O=C1OC2CCCC[C@@H]2C2C[C@]34CCCCC3[C@@H](C(=O)O4)C12 (stereo partly specified),> 100,–
CN(C)c1cc[c]([Sn]([c]2ccc(N(C)C)cc2)([c]2ccc(N(C)C)cc2)[c]2ccc(N(C)C)cc2)cc1,28,6.74
CCCSc1nc(COC(=O)NC)c(COC(=O)NC)n1C,> 100,–
O=C1CCC(O)=C1N=Nc1ccccc1,> 100,–
CCN(CC)c1ccc(N=Nc2ccc(-c3nc4ccc[n+](C)c4s3)cc2)cc1,58.8,–
NC(=O)NCc1c(C(N)=O)ncn1Cc1ccccc1,> 100,–
O=C1CSC(/C(=N/Nc2ccccc2)c2nc3ccccc3[nH]2)=N1,> 100,–
O=C(c1ccccc1)C1OC12C(=O)Nc1ccccc12 (stereo unspecified),> 100,–
COc1ccc2nc(NC(=O)C(=O)C(C#N)c3ccc([N+](=O)[O-])cc3)sc2c1 (stereo unspecified),> 100,–

Compound,TGI [µM],GI50 [µM]
O=C(O)[C@H](NS(=O)(=O)c1ccc([N+](=O)[O-])cc1)c1ccccc1,> 100,–
S=C1OC2CCCC[C@H]2O1 (stereo partly specified),> 100,–
O=C1/C(=C/c2cccc([N+](=O)[O-])c2)COc2ccc(Br)cc21,> 100,–
COc1c(CCl)cc(-c2cc(=O)c3ccccc3s2)cc1CCl,> 100,–
CSC(C1c2ccccc2N(c2ccc(C)cc2)c2[nH]c(=O)n(C)c(=O)c21)S(=O)(=O)c1ccc(C)cc1 (stereo unspecified),> 100,–
CCOC(=O)NC(=O)c1cn(CCCOC(=O)CCCCCCCCCCC(=O)OCCCn2cc(C(=O)NC(=O)OCC)c(=O)[nH]c2=O)c(=O)[nH]c1=O,> 100,–
COc1cc(/C=C(\C#N)c2ccccc2)cc(OC)c1,> 100,–
N#Cc1cccnc1Cl,> 100,–
C=CC/C=C/C/C=C/CCCCCCCc1cccc(O)c1C(=O)O,> 100,–
CCn1c(SCc2ccc(C)cc2)nnc1-c1nn(-c2ccc(Cl)cc2Cl)c(-c2ccc(Cl)cc2)c1C,13,2.88
COc1ccc(OC)c2c(C(=O)O)c(Cc3ccccc3)ccc12,> 100,–
O=C(Nc1c(Cl)cc([N+](=O)[O-])cc1Cl)C(=O)C(C1OC(=O)c2ccccc21)[N+](=O)[O-] (stereo unspecified),> 100,–
Cc1c(C(=O)/C=C/c2ccccc2)[n+](=O)c2ccccc2n1[O-],29.5,–
N#CC1CC2(C1)OCCS2 (stereo unspecified),> 100,–
COc1cc(NC(C)CCCN)c2nccc(C)c2c1 (stereo unspecified),> 100,–
c1ccc(C2Nc3ccccc3C3OCCCC23)cc1 (stereo unspecified),68.4,–

# Tested on: HCT-15 colon
# Test: NCI anticancer screen, dose series, 48 h
Compound,GI50 [µM],TGI [µM]
Nc1ccc(-c2nc3ccc(Cc4ccc5nc(-c6ccc(N)cc6)[nH]c5c4)cc3[nH]2)cc1,14.8,47.9
O=C1[C@@H]2C(c3ccccc3F)=NO[C@@H]2C(=O)N1c1ccc(Cc2ccc(N3C(=O)[C@H]4C(c5ccccc5F)=NO[C@H]4C3=O)cc2)cc1,–,> 100
C=CCc1ccc(Oc2cc(CC=C)c3c(c2O)O[C@@H](CO)[C@H]3c2ccc(O)c(-c3cc(CC=C)ccc3O)c2)cc1,–,> 100
Cn1c2ccccc2c(=O)c2ccc(Cl)cc21,–,> 10
O=C(NCO)NCOCn1c(=O)n(CO)c(=O)n(CO)c1=O,–,60.9
CCSc1nc(SCC)c2cn[nH]c2n1,66.3,> 100
COc1ccc(CCN2COc3c([C@@H](C)CCC=C(C)C)ccc(C)c3C2)cc1OC,2.84,10.4
O=C1OC2CCCC[C@@H]2C2C[C@]34CCCCC3[C@@H](C(=O)O4)C12 (stereo partly specified),–,> 100
CN(C)c1cc[c]([Sn]([c]2ccc(N(C)C)cc2)([c]2ccc(N(C)C)cc2)[c]2ccc(N(C)C)cc2)cc1,> 100,> 100
